From patent US20120122848A1, “(+)-3-HYDROXYMORPHINAN DERIVATIVES AS NEUROPROTECTANTS” (GREEN CROSS CORPORATION, priority 2009, published 2012)
Counter-ions that a name gives are not always drawn.

How the values were obtained:
[1] = test system: HT22 cells (mouse hippocampal neuron); assay: Cell cytotoxicity test: protection of HT22 cells against glutamate toxicity (EC50) and cytotoxicity of the compounds (CC50), MTT; type: cell-based; conditions: Mus musculus, HT-22, five millimolar glutamate, 24 hrs, read-out: EC50 (neuroprotective effect against glutamate toxicity)
Method: (§1) HT22 cells (mouse hippocampal neuron, Salk Institute and KRIBB) were plated in a 96-well plate at a density of 3×10^3 cells/well for 16 hrs before treatment. The cells were treated with five millimolar glutamate and various concentrations of the inventive compounds and incubated for 24 hrs in a growth media (DMEM with 10% FBS and 1% penicillin streptomycin). Then, the cells were treated with 3-(4,5-dimethylthiazol-2-yl)-2,5-diphenyltetrazolium bromide (MTT, Sigma®) for 4 hrs and absorbance of each well was measured with a plate reader at a wavelength of 450 nm. [Da-Qing, et. al., Anti-oxidant and anti-inflammatory activities of macelignan in murine hippocampal cell line and primary culture of rat microglia cells, BBRC, 2005, 331, 1264-1269].
(§2) In Table 1, EC50 is neuroprotective effect against glutamate toxicity and CC50 is cytotoxicity of the compounds. The EC50 values were statistically analyzed using Prizm® (GraphPad Software Inc., San Diego, Calif., USA).

[2] = as above; type: cell-based, mouse; conditions: mouse, HT22 cells (mouse hippocampal neuron)
Method: as §1, §2

| SMILES | EC50 [1] [nM] | CC50 at 24 h [2] [nM] |
| --- | --- | --- |
| CS(=O)(=O)Nc1ccccc1Nc1c(O)cc2c(c1Cl)C[C@@H]1NCC[C@]23CCCC[C@H]13 [Example 133, (+)-1-Chloro-3-hydroxy-2-(2-(methanesulfonamido)phenylamino)morphinan TFA salt] | 256 | 16500 |
| CC(Nc1cc2c(cc1O)[C@]13CCCC[C@@H]1[C@H](C2)NCC3)c1ccccc1 (stereo partly drawn) [Example 91, (+)-3-Hydroxy-2-(1-phenylethylamino)morphinan TFA salt] | 81.3 | 15000 |
| Oc1cc2c(cc1Nc1ccc(F)cc1)C[C@@H]1NCC[C@]23CCCC[C@H]13 [Example 29, (+)-2-(4-Fluorophenylamino)-3-hydroxymorphinan TFA salt] | 33.5 | 19900 |
| O=C(O)c1ccccc1Nc1cc2c(cc1O)[C@]13CCCC[C@@H]1[C@H](C2)NCC3 [Example 109, (+)-2-(2-Carboxyphenylamino)-3-hydroxymorphinan TFA salt] | 14100 | > 100000 |
| COc1ccc(Nc2cc3c(cc2O)[C@]24CCCC[C@@H]2[C@H](C3)NCC4)c(OC)c1 [Example 40, (+)-2-(2,4-Dimethoxyphenylamino)-3-hydroxymorphinan TFA salt] | 33 | 7200 |
| Oc1cc2c(cc1Nc1ccc3c(c1)OCCO3)C[C@@H]1NCC[C@]23CCCC[C@H]13 [Example 37, (+)-2((3,4-Ethylenedioxy)phenylamino)-3-hydroxymorphinan TFA salt] | 140 | 14200 |
| CCCNc1cc2c(cc1O)[C@]13CCCC[C@@H]1[C@H](C2)NCC3 [Example 88, (+)-3-Hydroxy-2-propylaminomorphinan TFA salt] | 41.6 | 37200 |
| CCNc1ccccc1Nc1cc2c(cc1O)[C@]13CCCC[C@@H]1[C@H](C2)NCC3 [Example 130, (+)-2-(2-(Ethylamino)phenylamino)-3-hydroxymorphinan TFA salt] | 11.2 | 1600 |
| CCCN(CCC)c1cc2c(cc1O)[C@]13CCCC[C@@H]1[C@H](C2)NCC3 [Example 96, (+)-2-(Dipropylamino)-3-hydroxymorphinan TFA salt] | 178 | 3490 |
| Cc1ccc(-c2cc3c(cc2O)[C@]24CCCC[C@@H]2[C@H](C3)NCC4)cc1 [Example 75, (+)-3-Hydroxy-2-(4-methylphenyl)morphinan TFA salt] | 1660 | 9400 |
| Oc1ccc(F)cc1Nc1cc2c(cc1O)[C@]13CCCC[C@@H]1[C@H](C2)NCC3 [Example 56, (+)-2-(5-Fluoro-2-hydroxyphenylamino)-3-hydroxymorphinan TFA salt] | 354 | 12600 |
| CS(=O)(=O)Nc1ccccc1Nc1c(O)cc2c(c1Br)C[C@@H]1NCC[C@]23CCCC[C@H]13 [Example 132, (+)-1-Bromo-3-hydroxy-2-(2-(methanesulfonamido)phenylamino)morphinan TFA salt] | 237 | 10600 |
| CCCCNc1cc2c(cc1O)[C@]13CCCC[C@@H]1[C@H](C2)NCC3 [Example 90, (+)-2-Butylamino-3-hydroxymorphinan TFA salt] | 74.7 | 35000 |
| CC(C)(C)c1ccccc1Nc1cc2c(cc1O)[C@]13CCCC[C@@H]1[C@H](C2)NCC3 [Example 51, (+)-2-(2-t-Butylphenylamino)-3-hydroxymorphinan TFA salt] | 36 | 1400 |
| Oc1cc2c(cc1-c1ccc(F)cc1)C[C@@H]1NCC[C@]23CCCC[C@H]13 [Example 77, (+)-2-(4-Fluorophenyl)-3-hydroxymorphinan TFA salt] | 3110 | 8300 |
| Oc1cccc(Nc2cc3c(cc2O)[C@]24CCCC[C@@H]2[C@H](C3)NCC4)c1 [Example 44, (+)-3-Hydroxy-2-(3-hydroxyphenylamino)morphinan TFA salt] | 802 | 75000 |
| O=C(Nc1ccccc1)Nc1ccccc1Nc1cc2c(cc1O)[C@]13CCCC[C@@H]1[C@H](C2)NCC3 [Example 122, (+)-3-Hydroxy-2-(2-(phenylureido)phenylamino)morphinan TFA salt] | 3700 | 33800 |
| Oc1cc2c(cc1Nc1ccccc1N1CCCCC1)C[C@@H]1NCC[C@]23CCCC[C@H]13 [Example 128, (+)-3-Hydroxy-2-(2-(piperidin-1-yl)phenylamino)morphinan TFA salt] | 35.6 | 1600 |
| Oc1cc2c(cc1Sc1ccccc1)C[C@@H]1NCC[C@]23CCCC[C@H]13 [Example 73, (+)-3-Hydroxy-2-phenylthiomorphinan TFA salt] | 1670 | 5570 |
| CCNc1cc2c(cc1O)[C@]13CCCC[C@@H]1[C@H](C2)NCC3 [Example 23, (+)-2-Ethylamino-3-hydroxymorphinan TFA salt] | 1100 | 49100 |

| SMILES | EC50 [1] [nM] | CC50 at 24 h [2] [nM] |
| --- | --- | --- |
| CC(C)c1ccc(Nc2cc3c(cc2O)[C@]24CCCC[C@@H]2[C@H](C3)NCC4)cc1 [Example 54, (+)-3-Hydroxy-2-(4-isopropylphenylamino)morphinan TFA salt] | 59.8 | 1500 |
| CCCc1cc2c(cc1O)[C@]13CCCC[C@@H]1[C@H](C2)NCC3 [Example 82, (+)-3-Hydroxy-2-propylmorphinan TFA salt] | 1020 | 28200 |
| CNc1ccccc1Nc1cc2c(cc1O)[C@]13CCCC[C@@H]1[C@H](C2)NCC3 [Example 127, (+)-3-Hydroxy-2-(2-(methylamino)phenylamino)morphinan TFA salt] | 62.1 | 1300 |
| CCN(C)c1ccccc1Nc1cc2c(cc1O)[C@]13CCCC[C@@H]1[C@H](C2)NCC3 [Example 131, (+)-2-(2-(Ethyl(methyl)amino)phenylamino)-3-hydroxymorphinan TFA salt] | 17.7 | 1500 |
| Cc1ccccc1Nc1cc2c(cc1O)[C@]13CCCC[C@@H]1[C@H](C2)NCC3 [Example 41, (+)-3-Hydroxy-2-(2-methylphenylamino)morphinan TFA salt] | 17.8 | 6900 |
| CC1CCN(c2cc3c(cc2O)[C@]24CCCC[C@@H]2[C@H](C3)NCC4)CC1 [Example 19, (+)-3-Hydroxy-2-(4-methylpiperidin-1-yl)morphinan TFA salt] | 272 | 8040 |
| Oc1cc2c(cc1Nc1ccc3ncccc3c1)C[C@@H]1NCC[C@]23CCCC[C@H]13 [Example 68, TFA salt] | 1720 | 8500 |
| N#Cc1cccc(-c2cc3c(cc2O)[C@]24CCCC[C@@H]2[C@H](C3)NCC4)c1 [Example 78, (+)-2-(3-Cyanophenyl)-3-hydroxymorphinan TFA salt] | 4600 | 21000 |
| Oc1cc2c(cc1Nc1c(O)cccc1O)C[C@@H]1NCC[C@]23CCCC[C@H]13 [Example 47, (+)-2-(2,6-Dihydroxyphenylamino)-3-hydroxymorphinan TFA salt] | 275 | 9000 |
| CCCCc1cc2c(cc1O)[C@]13CCCC[C@@H]1[C@H](C2)NCC3 [Example 83, (+)-2-Butyl-3-hydroxymorphinan TFA salt] | 2070 | 51500 |
| Oc1cc2c(cc1NCCC(F)(F)F)C[C@@H]1NCC[C@]23CCCC[C@H]13 [Example 97, (+)-3-Hydroxy-2-(3-trifluoropropylamino)morphinan TFA salt] | 183 | 67000 |
| CCS(=O)(=O)Nc1ccccc1Nc1cc2c(cc1O)[C@]13CCCC[C@@H]1[C@H](C2)NCC3 [Example 111, (+)-2-(2-(Ethanesulfonamido)phenylamino)-3-hydroxymorphinan TFA salt] | 475 | 36500 |
| Oc1cc2c(cc1NC1CCCCC1)C[C@@H]1NCC[C@]23CCCC[C@H]13 [Example 93, (+)-2-Cyclohexylamino-3-hydroxymorphinan TFA salt] | 98.6 | 13800 |
| CN1CCN(c2cc3c(cc2O)[C@]24CCCC[C@@H]2[C@H](C3)NCC4)CC1 [Example 24, (+)-3-Hydroxy-2-(4-methylpiperazin-1-yl)morphinan 2TFA salt] | 3100 | 14400 |
| Oc1cc2c(cc1N1CCCCC1)C[C@@H]1NCC[C@]23CCCC[C@H]13 [Example 21, (+)-3-Hydroxy-2-(piperidin-1-yl)morphinan TFA salt] | 482 | 63500 |
| CC(C)Nc1cc2c(cc1O)[C@]13CCCC[C@@H]1[C@H](C2)NCC3 [Example 87, (+)-3-Hydroxy-2-isopropylaminomorphinan TFA salt] | 35.4 | 39500 |
| CCc1ccccc1Nc1cc2c(cc1O)[C@]13CCCC[C@@H]1[C@H](C2)NCC3 [Example 49, (+)-2-(2-Ethylphenylamino)-3-hydroxymorphinan TFA salt] | 32.8 | 1100 |
| CC(C)(C)c1cc2c(cc1O)[C@]13CCCC[C@@H]1[C@H](C2)NCC3 [Example 104, (+)-2-tert-Butyl-3-hydroxymorphinan TFA salt] | 1370 | 10000 |
| Oc1cc2c(cc1N1CCOCC1)C[C@@H]1NCC[C@]23CCCC[C@H]13 [Example 86, (+)-3-Hydroxy-2-morpholinomorphinan TFA salt] | 1550 | > 100000 |
